What is called IC50 is the point on the concentration scale where inhibition reaches its midpoint.

In assay [1] the target is Recombinant human Cbl-b (aa 36-427) (Homo sapiens, UniProt Q13191). Description: Cbl-b Biochemical Assay (TR-FRET). The following applies: read-out: TR-FRET hCbl-b IC50.
Assay [2] addresses T1, Recombinant human c-Cbl (aa 47-435) (Homo sapiens, UniProt P22681).
T1 sequence (P22681 47-435): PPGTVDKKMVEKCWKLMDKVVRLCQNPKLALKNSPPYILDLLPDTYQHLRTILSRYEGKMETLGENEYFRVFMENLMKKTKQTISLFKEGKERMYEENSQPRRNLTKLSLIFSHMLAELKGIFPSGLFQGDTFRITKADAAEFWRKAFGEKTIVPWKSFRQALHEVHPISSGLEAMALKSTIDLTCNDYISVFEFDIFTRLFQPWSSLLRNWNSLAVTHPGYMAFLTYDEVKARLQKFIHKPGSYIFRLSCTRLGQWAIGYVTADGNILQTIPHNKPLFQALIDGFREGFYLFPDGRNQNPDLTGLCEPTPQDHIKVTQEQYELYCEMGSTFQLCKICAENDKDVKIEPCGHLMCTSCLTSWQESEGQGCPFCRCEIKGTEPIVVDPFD
Description: c-Cbl Biochemical Assay (TR-FRET). The following applies: hc-Cbl Biochemical Assay (TR-FRET); read-out: TR-FRET hcCbl IC50. In general terms: Time-resolved FRET reads energy transfer from a long-lived donor to a nearby acceptor.

Each structure is given as a SMILES string.

Sequence of Recombinant human Cbl-b (aa 36-427) (Q13191 36-427): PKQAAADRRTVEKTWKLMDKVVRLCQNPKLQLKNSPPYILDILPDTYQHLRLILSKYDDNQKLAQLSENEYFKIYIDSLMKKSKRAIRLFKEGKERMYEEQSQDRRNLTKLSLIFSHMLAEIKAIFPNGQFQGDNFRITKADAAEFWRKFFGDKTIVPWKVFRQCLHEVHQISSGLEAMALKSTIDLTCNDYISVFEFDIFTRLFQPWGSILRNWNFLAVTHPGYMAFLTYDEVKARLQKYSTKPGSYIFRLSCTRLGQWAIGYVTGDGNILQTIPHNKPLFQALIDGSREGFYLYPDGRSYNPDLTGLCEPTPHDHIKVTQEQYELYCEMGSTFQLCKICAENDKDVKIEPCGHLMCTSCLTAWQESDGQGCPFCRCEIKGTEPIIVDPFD

For `CC(Cc1nncn1C)c1cccc(-c2nc3ccc(C(=O)N4CCN(C)CC4)c(C(F)(F)F)c3[nH]2)c1` (racemic) [AY-5, (2-(3-(1-(4-Methyl-4H-1,2,4-triazol-3-yl)propan-2-yl)phenyl)-7-(trifluoromethyl)-1H-benzo[d]imidazol-6-yl)(4-methylpiperazin-1-yl)methanone], the IC50 in assay [1] and in assay [2] was 10 to 50 µM throughout.
For the molecule `C=Cc1cc(C(F)(F)F)c2oc(-c3cccc(-c4ccc(F)cc4-c4nncn4C)c3)nc2c1` (racemic) [DL-1, 2-(4′-Fluoro-2′-(4-methyl-4H-1,2,4-triazol-3-yl)-[1,1′-biphenyl]-3-yl)-7-(trifluoromethyl)-5-vinylbenzo[d]oxazole], the half-maximal inhibitory concentration (IC50) in assay [1] fell in the range of 0.2 to 1 µM; in assay [2], 1 to 10 µM.
For `CCNc1cc(-c2c(-c3nncn3C)cnn2C)cc(-c2nc3cc(CN4CCC5(CC5)C4)cc(C(F)(F)F)c3o2)n1` [AAC-5, 6-(5-{5-Azaspiro[2.4]heptan-5-ylmethyl}-7-(trifluoromethyl)-1,3-benzoxazol-2-yl)-N-ethyl-4-[2-methyl-4-(4-methyl-1,2,4-triazol-3-yl)pyrazol-3-yl]pyridin-2-amine] the same measures were 1 to 10 µM and 10 to 50 µM.
In the case of `C[C@@H]1CCCN(Cc2cc(C(F)(F)F)c3[nH]c(-c4cccc(-c5ccccc5-c5nncn5C)c4)nc3c2)C1` [AAJ-1, 2-[2′-(4-Methyl-1,2,4-triazol-3-yl)-[1,1′-biphenyl]-3-yl]-6-{[(3R)-3-methylpiperidin-1-yl]methyl}-4-(trifluoromethyl)-3H-1,3-benzodiazole], the IC50 fell in the range of 1 to 10 µM in assay [1] and 10 to 50 µM in assay [2].
For `Cn1cnnc1CC1(c2cccc(-c3nc4cc(Br)cc(C(F)(F)F)c4o3)c2)COC1` [AAK-1, 5-Bromo-2-(3-(3-((4-methyl-4H-1,2,4-triazol-3-yl)methyl)oxetan-3-yl)phenyl)-7-(trifluoromethyl)benzo[d]oxazole], in that order: 0.2 to 1 µM and 10 to 50 µM.
In the case of `Cn1cnnc1CC1(c2cccc(-c3nc4cc(Br)cc(C(F)(F)F)c4[nH]3)c2)COC1` [ABE-2, 5-Bromo-2-(3-(3-((4-methyl-4H-1,2,4-triazol-3-yl)methyl)oxetan-3-yl)phenyl)-7-(trifluoromethyl)-1H-benzo[d]imidazole], in assay [1], the IC50 is 10 to 50 µM.
Same read-out and setting: the same measure for `Cn1cnnc1CC1(c2cccc(-c3nc4c(C(F)(F)F)cccc4s3)c2)COC1` [ABF-4, 2-(3-[3-[(4-Methyl-1,2,4-triazol-3-yl)methyl]oxetan-3-yl]phenyl)-4-(trifluoromethyl)-1,3-benzothiazole]: 10 to 50 µM; for `Cn1cnnc1CC1(c2cccc(-c3nc4cccc(C5CC5)c4[nH]3)c2)COC1` [ABG-3, 7-Cyclopropyl-2-(3-(3-((4-methyl-4H-1,2,4-triazol-3-yl)methyl)oxetan-3-yl)phenyl)-1H-benzo[d]imidazole]: 10 to 50 µM.
On to `Cn1cnnc1CCc1cccc(-c2nc3cccc(C(F)(F)F)n3n2)c1` [ABI-7, 2-(3-(2-(4-Methyl-4H-1,2,4-triazol-3-yl)ethyl)phenyl)-5-(trifluoromethyl)-[1,2,4]triazolo[1,5-a]pyridine], for which the half-maximal inhibitory concentration (IC50) in assay [1] fell in the range of 10 to 50 µM.
Still for that read-out and setting: the figure for `Cn1cnnc1CC1(c2cccc(-c3nc4cccc(Cl)c4[nH]3)c2)COC1` [ABM-2, 7-Chloro-2-(3-(3-((4-methyl-4H-1,2,4-triazol-3-yl)methyl)oxetan-3-yl)phenyl)-1H-benzo[d]imidazole] is 10 to 50 µM.
For `Cn1cnnc1-c1cnn(C)c1-c1cccc(-c2nc3cccc(C(F)(F)F)n3n2)c1` [ABN-2, 4-Methyl-3-(1-methyl-5-{3-[5-(trifluoromethyl)-[1,2,4]triazolo[1,5-a]pyridin-2-yl]phenyl}pyrazol-4-yl)-1,2,4-triazole], the IC50 in assay [1] lay in the range of 10 to 50 µM.
Still for that read-out and setting: the same measure for `Cn1cnnc1CC1(c2cccc(-c3nc4cccc(Br)c4[nH]3)c2)COC1` [ABP-2, 4-Bromo-2-(3-[3-[(4-methyl-1,2,4-triazol-3-yl)methyl]oxetan-3-yl]phenyl)-1H-1,3-benzodiazole]: 10 to 50 µM; for `Cn1cnnc1CC1(c2cccc(-c3nc4cccc(OC(F)(F)F)c4[nH]3)c2)COC1` [ABQ-2, 2-(3-(3-((4-Methyl-4H-1,2,4-triazol-3-yl)methyl)oxetan-3-yl)phenyl)-7-(trifluoromethoxy)-1H-benzo[d]imidazole]: 10 to 50 µM.
As to `Cn1cnnc1-c1ccccc1-c1cccc(-c2nc3cccc(C(F)(F)F)c3[nH]2)c1` [ABW-1, 2-(2′-(4-Methyl-4H-1,2,4-triazol-3-yl)-[1,1′-biphenyl]-3-yl)-7-(trifluoromethyl)-1H-benzo[d]imidazole], in assay [1], the IC50 lay in the range of 10 to 50 µM.
Same read-out and setting: the figure for `Cn1cnnc1CC1(c2cccc(-c3nc4cc(C(=O)Nc5nccn5C)cc(C(F)(F)F)c4[nH]3)c2)COC1` [ABZ-2, N-(1-Methyl-1H-imidazol-2-yl)-2-(3-(3-((4-methyl-4H-1,2,4-triazol-3-yl)methyl)oxetan-3-yl)phenyl)-7-(trifluoromethyl)-1H-benzo[d]imidazole-5-carboxamide] is 10 to 50 µM; for `Cn1cnnc1-c1ccccc1-c1cccc(-c2nc3cc(C(=O)N4CCC5(CC5)C4)cc(C(F)(F)F)c3[nH]2)c1` [ACE-1, (2-(2′-(4-Methyl-4H-1,2,4-triazol-3-yl)-[1,1′-biphenyl]-3-yl)-7-(trifluoromethyl)-1H-benzo[d]imidazol-5-yl)(5-azaspiro[2.4]heptan-5-yl)methanone] it is 10 to 50 µM.
Still for that read-out and setting: the same measure for `Cn1cnnc1CC1(c2cccc(-c3cc(C(F)(F)F)cn(CCN4CC(O)C4)c3=O)c2)COC1` [ACH-5, 1-(2-(3-Hydroxyazetidin-1-yl)ethyl)-3-(3-(3-((4-methyl-4H-1,2,4-triazol-3-yl)methyl)oxetan-3-yl)phenyl)-5-(trifluoromethyl) pyridin-2(1H)-one]: 10 to 50 µM.
Still for that read-out and setting: the same measure for `Cn1cnnc1CC1(c2cccc(-c3cc4cccc(C(F)(F)F)c4[nH]3)c2)COC1` [ACP-4, 2-(3-(3-((4-Methyl-4H-1,2,4-triazol-3-yl)methyl)oxetan-3-yl)phenyl)-7-(trifluoromethyl)-1H-indole]: 10 to 50 µM.
`CCNc1cc(-c2c(-c3nncn3C)cnn2C)cc(-c2nc3ccc(Br)c(C(F)(F)F)c3[nH]2)n1` [ACT-3, 6-(6-Bromo-7-(trifluoromethyl)-1H-benzo[d]imidazol-2-yl)-N-ethyl-4-(1-methyl-4-(4-methyl-4H-1,2,4-triazol-3-yl)-1H-pyrazol-5-yl) pyridin-2-amine]: in assay [1], the IC50 fell in the range of 10 to 50 µM.
The same measure, in the same setting: the same measure for `CCNc1cc(-c2c(-c3nncn3C)cnn2C)cc(-c2nc3ccc(C)c(C(F)(F)F)c3[nH]2)n1` [ACV-5, N-Ethyl-4-(1-methyl-4-(4-methyl-4H-1,2,4-triazol-3-yl)-1H-pyrazol-5-yl)-6-(6-methyl-7-(trifluoromethyl)-1H-benzo[d]imidazol-2-yl) pyridin-2-amine]: 10 to 50 µM; for `CCNc1cc(-c2c(-c3nncn3C)cnn2C)cc(-c2nc3cccc(C(F)(F)F)c3o2)n1` [ACW-2, N-Ethyl-4-(1-methyl-4-(4-methyl-4H-1,2,4-triazol-3-yl)-1H-pyrazol-5-yl)-6-(7-(trifluoromethyl)benzo[d]oxazol-2-yl)pyridin-2-amine]: 10 to 50 µM.
`N#CC1(CN)CCCC1` [AHN-1]: in assay [2], the concentration for half-maximal inhibition (IC50) was below 0.2 µM.
On to `CCNc1cc(-c2ccccc2-c2nncn2C)cc(-c2nc3cccc(C(F)(F)F)c3o2)n1` [AS-12, N-ethyl-4-(2-(4-methyl-4H-1,2,4-triazol-3-yl)phenyl)-6-(7-(trifluoromethyl)benzo[d]oxazol-2-yl)pyridin-2-amine], for which the half-maximal inhibitory concentration (IC50) in assay [1] fell in the range of 10 to 50 µM.
On the same count and under the same terms, the figure for `Cn1cnnc1-c1ccccc1-c1cccc(-c2nc3ccc(Br)c(C(F)(F)F)c3[nH]2)c1` [BB-1, 6-Bromo-2-(2′-(4-methyl-4H-1,2,4-triazol-3-yl)-[1,1′-biphenyl]-3-yl)-7-(trifluoromethyl)-1H-benzo[d]imidazole] is 10 to 50 µM; for `Cn1cnnc1-c1ccccc1-c1cccc(-c2nc3ccc(F)c(C(F)(F)F)c3[nH]2)c1` [BC-1, 6-Fluoro-2-(2′-(4-methyl-4H-1,2,4-triazol-3-yl)-[1,1′-biphenyl]-3-yl)-7-(trifluoromethyl)-1H-benzo[d]imidazole] it is 10 to 50 µM.
Same read-out and setting: the figure for `CN1CCC(C(=O)Nc2ccc3nc(-c4cccc(-c5ccccc5-c5nncn5C)c4)[nH]c3c2C(F)(F)F)CC1` [BF-3, 1-Methyl-N-(2-(2′-(4-methyl-4H-1,2,4-triazol-3-yl)-[1,1′-biphenyl]-3-yl)-7-(trifluoromethyl)-1H-benzo[d]imidazol-6-yl)piperidine-4-carboxamide, Formic Acid] is 10 to 50 µM; for `Cn1cnnc1-c1cc(F)ccc1-c1cccc(-c2nc3ccccc3[nH]2)c1` [CA-2, 2-(4′-Fluoro-2′-(4-methyl-4H-1,2,4-triazol-3-yl)-[1,1′-biphenyl]-3-yl)-1H-benzo[d]imidazole] it is 10 to 50 µM; for `Cn1cnnc1-c1ccccc1-c1cccc(-c2cc(C(F)(F)F)cn(C)c2=O)c1` [CG-4, 1-Methyl-3-(2′-(4-methyl-4H-1,2,4-triazol-3-yl)-[1,1′-biphenyl]-3-yl)-5-(trifluoromethyl)pyridin-2(1H)-one] it is 10 to 50 µM.
Consider `Cn1cnnc1-c1ccccc1-c1cccc(-c2cc(C(F)(F)F)c(C(=O)O)[nH]c2=O)c1` [CH-3, 5-(2′-(4-methyl-4H-1,2,4-triazol-3-yl)-[1,1′-biphenyl]-3-yl)-6-oxo-3-(trifluoromethyl)-1,6-dihydropyridine-2-carboxylic Acid], for which the IC50 in assay [1] is 10 to 50 µM.

These data come from patent publication US20250163038A1, “CBL-B MODULATORS AND USES THEREOF” (Nimbus Clio, Inc., priority 2021, published 2025).
